Values of other authors in patent US8846088B2, “Melt granulation of a composition containing a calcium-containing compound” (Takeda Nycomed AS, priority 2005, dated 2014).

Test system: elderly patients
Conditions: annual injections of 150.000-300.000 IU

Substance: vitamin D
- overall fracture rate: significant reduction in overall fracture rate
- rate of hip fracture: not in the rate of hip fracture
